# Where no end group is shown, it is not given here.
# How the values were obtained:
# [1] = tested on: DR3DQ2×RIP-B7.1 mice; experiment: Adjuvanted antigen priming (disease acceleration), diabetes monitoring; assay type: in vivo
# Text: Mice were monitored weekly for diabetes up to 20 weeks post prime. The grey dotted line indicates the expected level of spontaneous diabetes in mice aged 12 weeks on day 0 of the experiments (based on the data in FIG. 1 and normalised for gender). Statistical analysis with Mantel-Cox Log-rank test. **p<0.01, ***p<0.001. • (b-e) Blood glucose levels for each individual mouse in the group immunised with PBS (b), murine proinsulin-2 peptides (c), human GAD65 (d) or fragment of human IA-2 (e).
# Mice were monitored weekly for diabetes up to 20 weeks post prime. The grey dotted line indicates the expected level of spontaneous diabetes in mice aged 8 weeks on day 0 of the experiment, based on the data in FIG. 1 and normalised for gender. Statistical analysis with Mantel-Cox Log-rank test. ***p<0.001 for B23-C20 versus B1-30 or C10-A6. ? p<0.01 for B23-C20 versus C25-A21. Rest not significant. • (b-e) Blood glucose levels for each individual mouse in the group immunised with B1-30 (b), B23-C20 (c), C10-A6 (d) or C25-A21 (e).
# (a) DR3DQ2×RIP-B7.1 mice aged 10-14 weeks were challenged with 100 μg of either GP-15 (2 ♂3♀), YA-15 (2 ♂3♀), ME-15 (3 ♂2♀), RG-15 (3 ♂2♀), DA-15 (2 ♂3♀) or VD-14 (3♂2♀) peptide in TiterMax Gold adjuvant s.c. on days 0 and 14, with 200 ng pertussis toxin administered i.p on days 0 and 1 or 2. Mice were monitored weekly for diabetes up to 20 weeks post prime. The grey dotted line indicates the expected level of spontaneous diabetes in mice aged 14 weeks on day 0 of the experiments (based on the data in FIG. 1 and normalised for gender). Statistical analysis with Mantel-Cox Log-rank test. *p<0.05 for RG-15 versus YA-15, **p<0.01 for ME-15 versus GP-15, YA-15 or VD-14. ? p<0.05 for ME-15 versus DA-15. Rest not significant. (b-f) Blood glucose levels for each individual mouse in the group immunised with GP-15 (b), YA-15 (c), ME-15 (d), RG-15 (e), DA-15 (f), VD-14 (g).
# HLA-DR3-DQ2-transgenic (B6.hCD4.DR3-DQ2.MHCII^−/− mice (described previously (de Kauwe A L et al. (2009) J Immunol 182(12): 7440-7450), and obtained from J. McCluskey) were crossed with RIP-B7.1-transgenic animals (B6.Cg-Tg(Ins2-CD80)3B7Flv/Orl, EMMA, Orleans, France; ID 00216) in order to obtain HLA-DR3-DQ2^+huCD4^+IA/IE^−/−RIP.B7.1^+ mice, hereafter referred to as DR3DQ2×RIP-B7.1. DR4×RIP-B7.1 mice, generated by crossing B6.129S2-H2-Ab1^tm/Gru Tg(HLA-DRA/H2-Ea,HLA-DRB1*0401/H2-Eb) 1Kito mice with B6.Cg-Tg(Ins2-CD80)3B7Flv/Orl, were described previously (Verhagen J, et al. (2018) Sci Rep 8(1): 14106). All animals were kept under specific-pathogen-free conditions, in individually ventilated cages, at the KCL Biological Services Unit on 12-hour light/dark cycles with food and water provided ad libitum. Experiments were conducted in accordance with UK Home Office regulations under a project license held by M. Peakman. All work was subject to assessment and approved locally by Guy's animal welfare and ethical review board (AWERB).
# All mice were monitored regularly for unprovoked glycosuria using Diastix strips (Bayer, Basel, Switzerland). Some mice were monitored weekly for hyperglycaemia, from the age of 6-7 weeks, by a minimal puncture of the tail vein at alternate sides of the tail and analysis using a OneTouch Verio meter and strips (Lifescan, High Wycombe, UK), in order to closely monitor progression towards spontaneous diabetes. Mice were considered diabetic following a blood glucose reading >16.7 mmol/l (300 mg/dl) in addition to confirmed glycosuria. […] Mice (aged 6-14 weeks) were primed with 100 μg of peptides or protein in TiterMax Gold adjuvant (TiterMax, Norcross, GA, USA) subcutaneously (s.c.) at the base of the tail and received a second dose s.c. distributed over the inguinal region on day 14. Mice received 200 ng Pertussis toxin (Sigma, Poole, UK) in PBS intraperitoneally (i.p.) on days 0 and 1 or 2. Mice were then monitored weekly for hyperglycaemia and for glycosuria. […]
# [2] = tested on: RIP.CD80×DR3DQ2 mice; experiment: Tolerance induction against accelerated diabetes; assay type: in vivo; settings: 10 μg soluble peptide s.c., 6 injections, before and after priming with murine B23-C20 in adjuvant; ME-15 versus YA-15 p<0.01, versus VD-14 p<0.05
# Procedure: FIG. 6 Tolerance induction against accelerated diabetes in RIP.CD80×DR3DQ2 mice. (a) Schedule of dosing. Mice aged 7-8 weeks (n=7 per group) were treated with soluble 14/15-mer peptide in PBS subcutaneously (s.c.) before and after acceleration of diabetes development by antigenic priming with 30-mer murine proinsulin-2 peptide B23-C20 in TiterMax Gold adjuvant on days 0 and 14. Pertussis toxin administered intraperitoneally (i.p.) on days 0 and 2. (b) Diabetes incidence in mice treated with 14/15-mer peptide ME-15 (1♀6♂), YA-15 (4♀3♂) or VD-14 (3♀4♂). Statistical analysis with Mantel-Cox Log-rank test. ME-15 versus YA-15, p<0.01; ME versus VD-14, p<0.05.
# All mice were monitored regularly for unprovoked glycosuria using Diastix strips (Bayer, Basel, Switzerland). Some mice were monitored weekly for hyperglycaemia, from the age of 6-7 weeks, by a minimal puncture of the tail vein at alternate sides of the tail and analysis using a OneTouch Verio meter and strips (Lifescan, High Wycombe, UK), in order to closely monitor progression towards spontaneous diabetes. Mice were considered diabetic following a blood glucose reading >16.7 mmol/l (300 mg/dl) in addition to confirmed glycosuria. […] Mice were then monitored weekly for hyperglycaemia and for glycosuria. […]
# [3] = Solubility of peptide; assay type: physicochemical
# [4] = tested on: human peripheral blood mononuclear cells (PBMCs); experiment: ELISPOT assay of cytokine responses to proinsulin peptides; assay type: cell-based; settings: 10 μg/ml peptide, 48 hours
# Text: Responses to proinsulin B30-C13 in human donors. PBMC from individuals with either HLA-DR3-DQ2 (a) or any other haplotype (b) were stimulated in vitro with human proinsulin-derived peptide B30-C13 or C19-A3 prior to detection of IFNγ by ELISPOT assay. HLA-DR3-DQ2 individuals, n=3; non-HLA-DR3-DQ2, n=6. *p<0.05, ratio paired t test.
# Responses to proinsulin B23-C20, B29-C11, B29-C14, B30-C13 and C-1-C14 peptides are shown. PBMCs from 5 type 1 diabetes patients with HLA-DR3-DQ2 (identified as #1-#5) were stimulated in vitro with human proinsulin-derived peptides B23-C20, B29-C11, B29-C14, B30-C13 and C−1-C14 prior to detection of IFN-γ and IL-17 (pro-inflammatory responses) and IL-10 (regulatory response) by ELISPOT assay. […]
# ELISPOT assays were carried out using human peripheral blood mononuclear cells (PBMCs) isolated from fresh heparinized blood. […] The cytokine secretion assay was performed using the IFN-γ, IL-17 and IL-10 ELISPOT kits (U-CyTech) according to the manufacturer's instructions and plates were analysed using an automated ELISPOT Bioreader 6000 (Bio-Sys) and relevant software. Data are expressed as the total number of spots in triplicate wells after peptide stimulation divided by the total number of spots in diluent only control wells (stimulation index [SI]) or as responder CD4 T cells/10^6 PBMCs.
# [5] = adjuvanted priming, follow up to 20 weeks post prime
substance,measurement,setting,value
"DPQVAQLELGGGPGA (listed as Mus musculus) [DA-15, murine proinsulin-2 15-mer]",diabetes acceleration / incidence versus control or spontaneous onset (in words),[1]; [5],cannot
GAD65: Recombinant human GAD65 (T-cell GAD) purchased from Diamyd Medical,diabetes acceleration / incidence versus control or spontaneous onset (in words),[1]; [5],only priming with proinsulin peptides clearly hastened diabetes onset and increased incidence
"GFFYTPMSRREVEDPQVAQLELGGGPGAGD (listed as Mus musculus) [B23-C20, murine 30-mer proinsulin-2 peptide B23-C20]",mean time of onset of diabetes (SD),"[1]; 100 μg in TiterMax Gold adjuvant s.c. days 0 and 14, pertussis toxin",49±16.2 days post prime
same,diabetes incidence,"[1]; by day 84 post prime, 100 μg in TiterMax Gold adjuvant",100%
same,diabetes acceleration / incidence versus control or spontaneous onset (in words),"[1]; mouse, in vivo","most overt disease exacerbation, with very rapid development of diabetes"
MSRREVEDPQVAQLE (listed as Mus musculus) [ME-15],tolerogenic effect on diabetes induced with B23-C20,[2],tolerogenic effect
same,diabetes acceleration / incidence versus control or spontaneous onset (in words),[1]; [5],markedly higher disease incidence during follow up than would be expected spontaneously
"REVEDPQVAQLELGG [RG-15, REVEDPQVAQLELGG]",solubility in aqueous solution,[3]; aqueous solution,highly insoluble
same,solubility in dimethyl sulfoxide,[3]; dimethyl sulfoxide,soluble
"TRREAEDLQVGQVELG (listed as Homo sapiens) [B30-C13, fragment of human proinsulin, residues B30-C13]","IFNγ ELISPOT response, HLA-DR3-DQ2 donors versus donors without this haplotype","[4]; HLA-DR3-DQ2 n=3, non-HLA-DR3-DQ2 n=6",greater response
same,IFNγ ELISPOT response versus control peptide C19-A3,[4]; p<0.05 ratio paired t test,greater than that to our control peptide C19-A3
"VAQLELGGGPGAGD (listed as Mus musculus) [VD-14, murine proinsulin-2 14-mer]",diabetes acceleration / incidence versus control or spontaneous onset (in words),[1]; [5],cannot

# Reference: patent US20230348562A1, “Proinsulin Peptides for Type I Diabetes” (King's College London, priority 2019, published 2023)
